As usually defined, the IC50 is the concentration at which inhibition is half-maximal.

In one assay the test system is most cancer cell lines. As to conditions: cited from earlier work.
Assay [1] relates to blood clotting. The assay can be described thus: Effect of curcumin alone on blood clotting. From the text:
Turmeric powder is the dried powdered rhizomes of Curcuma longa of the ginger family. Turmeric powder comprises 60-70% carbohydrates, 6-13% water, 6-8% protein, 5-10% fat, 3-7% dietary minerals, 3-7% essential oils such as turmerone and germacrone, 2-7% dietary fiber, and 1-6% curcuminoids. (including curcumin). […] The turmeric powder may be passed through a 100 mesh (149 micron) sieve such that the resulting particles are smaller than 149 microns in diameter. Generally, turmeric powder is present in the suspension at a concentration between 0.1 g per mL and 2 g per ml. In one embodiment, the concentration is between 0.1 g per mL and 1 g per mL. In yet another embodiment, the concentration is between 0.1 g per mL and 0.5 g per mL.

The subject of assay [2] is blood clotting. The conditions noted are these: Kim et al., BMB Rep. 2012; cited from earlier work.

In the case of `COc1cc(/C=C/C(=O)CC(=O)/C=C/c2ccc(O)c(OC)c2)ccc1O` [curcumin], the anti-cancer activity result in the assay on most cancer cell lines was “moderate”. Further, the IC50 in the assay on most cancer cell lines (most cancer cell lines, peer reviewed literature) was 20 µM. In addition, the “promotion of blood clotting” value in the assay on blood clotting [1] is “not found to promote blood clotting”. Also, the anticoagulant activity entry in the assay on blood clotting [2] is “well-known anticoagulant”.

The values above are taken from patent US12642885B2, “Hemostatic and wound healing turmeric-polymer composite materials” (priority 2021, dated 2026).
